Key:
Experiment in all cases: relative viability (nuclei count vs DMSO), 5 days (fraction); higher = more cells survive
RAF265 + Bortezomib = compound: Cn1c(Nc2ccc(C(F)(F)F)cc2)nc2cc(Oc3ccnc(-c4ncc(C(F)(F)F)[nH]4)c3)ccc21 [RAF265] + CC(C)C[C@H](NC(=O)[C@H](Cc1ccccc1)NC(=O)c1cnccn1)B(O)O [Bortezomib] (partner 0.002 µM)
How it was run: (§1)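 Cells from lung cancer lines were seeded into 1536-well plates and, one day later, dosed by pin tool. Treatments were either a single drug or a fixed dose of an anchor drug with five library-drug doses (not always all listed) in √10 steps. After 5 days, nuclei were stained in a one-step fixation (final 0.05% Triton X-100, 1% formaldehyde, 1 ug/ml Hoechst) and counted on 4× images, and relative viability is the treated-to-vehicle nuclei ratio, as the median of duplicate plates.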

IPA-3 + Phenformin = compound: C1=CC=C2C(=C1)C=CC(=C2SSC3=C(C=CC4=CC=CC=C43)O)O [IPA-3] + N=C(N)NC(=N)NCCc1ccccc1 [Phenformin] (partner 250 µM)
How it was run: as §1

IPA-3 + Crizotinib = compound: C1=CC=C2C(=C1)C=CC(=C2SSC3=C(C=CC4=CC=CC=C43)O)O [IPA-3] + C[C@@H](Oc1cc(-c2cnn(C3CCNCC3)c2)cnc1N)c1c(Cl)ccc(F)c1Cl [Crizotinib] (partner 1 µM)
How it was run: as §1

Doramapimod + Dasatinib = compound: Cc1ccc(-n2nc(C(C)(C)C)cc2NC(=O)Nc2ccc(OCCN3CCOCC3)c3ccccc23)cc1 [Doramapimod] + Cc1nc(Nc2ncc(C(=O)Nc3c(C)cccc3Cl)s2)cc(N2CCN(CCO)CC2)n1 [Dasatinib] (partner 0.075 µM)
How it was run: as §1

Row | Cell Line | relative viability (RAF265 + Bortezomib; first compound 0.01 µM) | relative viability (RAF265 + Bortezomib; first compound 0.03162 µM) | relative viability (RAF265 + Bortezomib; first compound 0.1 µM) | relative viability (RAF265 + Bortezomib; first compound 0.3162 µM) | relative viability (RAF265 + Bortezomib; first compound 1 µM) | relative viability (IPA-3 + Phenformin; first compound 0.2 µM) | relative viability (IPA-3 + Phenformin; first compound 0.6325 µM) | relative viability (IPA-3 + Phenformin; first compound 20 µM) | relative viability (IPA-3 + Crizotinib; first compound 0.2 µM) | relative viability (IPA-3 + Crizotinib; first compound 0.6325 µM) | relative viability (IPA-3 + Crizotinib; first compound 2 µM) | relative viability (IPA-3 + Crizotinib; first compound 6.325 µM) | relative viability (IPA-3 + Crizotinib; first compound 20 µM) | relative viability (Doramapimod + Dasatinib; first compound 0.02 µM) | relative viability (Doramapimod + Dasatinib; first compound 0.06325 µM) | relative viability (Doramapimod + Dasatinib; first compound 0.2 µM) | relative viability (Doramapimod + Dasatinib; first compound 0.6325 µM) | relative viability (Doramapimod + Dasatinib; first compound 2 µM) | relative viability (IPA-3 + Phenformin; first compound 2 µM) | relative viability (IPA-3 + Phenformin; first compound 6.325 µM)
1 | NCI-H1792 | 0.985 | 0.889 | 0.905 | 0.837 | 0.574 | 0.371 | 0.44 | 0.408 | 1.14 | 1.01 | 1.01 | 0.996 | 1.16 | 0.727 | 0.645 | 0.713 | 0.645 | 0.654 | – | –
2 | NCI-H1915 | 0.96 | 0.95 | 0.887 | 0.816 | 0.417 | 0.388 | 0.36 | 0.389 | 1.02 | 0.905 | 0.923 | 0.867 | 0.949 | 0.304 | 0.327 | 0.316 | 0.354 | 0.307 | 0.371 | 0.338
3 | NCI-H1975 | 0.46 | 0.342 | 0.334 | 0.322 | 0.229 | 0.43 | 0.385 | 0.381 | 1.21 | 0.896 | 0.968 | 0.883 | 0.952 | 0.284 | 0.365 | 0.353 | 0.374 | 0.357 | 0.43 | 0.429
4 | NCI-H1993 | 1.06 | 0.941 | 1.09 | 1.01 | 0.795 | 0.467 | 0.515 | 0.514 | 0.71 | 0.811 | 0.885 | 0.889 | 0.998 | 0.885 | 0.638 | 0.505 | 0.705 | 0.559 | 0.538 | 0.547
5 | NCI-H2009 | 1.05 | 0.981 | 0.905 | 0.899 | 0.657 | 0.539 | 0.477 | 0.387 | 1.12 | 1 | 1.04 | 0.915 | 0.924 | 0.345 | 0.382 | 0.422 | 0.529 | 0.297 | 0.495 | 0.445
6 | NCI-H2023 | 1.07 | 1.08 | 1.07 | 0.786 | 0.794 | 0.51 | 0.403 | 0.436 | 0.714 | 0.58 | 0.809 | 0.735 | 0.893 | 0.601 | 0.521 | 0.533 | 0.645 | 0.512 | 0.496 | 0.409
7 | NCI-H2085 | 1.1 | 0.985 | 1.14 | 1.1 | 0.987 | 0.82 | 0.651 | 0.585 | 0.89 | 0.912 | 0.876 | 0.931 | 0.995 | 0.253 | 0.252 | 0.221 | 0.28 | 0.201 | 0.744 | 0.678
8 | NCI-H2087 | 0.772 | 0.718 | 0.804 | 0.621 | 0.714 | 0.596 | 0.412 | 0.466 | 0.955 | 0.755 | 0.9 | 0.791 | 0.957 | 0.937 | 1.07 | 0.809 | 0.893 | 0.837 | 0.555 | 0.476
9 | NCI-H2126 | 1.05 | 1.1 | 1.13 | 1.14 | 0.926 | 0.57 | 0.517 | 0.629 | 1.05 | 0.983 | 1.05 | 1.03 | 1.14 | 0.59 | 0.661 | 0.577 | 0.544 | 0.497 | 0.506 | 0.516
10 | NCI-H2228 | 0.968 | 0.82 | 0.887 | 0.412 | 0.42 | 0.556 | 0.31 | 0.284 | 0.437 | 0.383 | 0.439 | 0.376 | 0.597 | 0.561 | 0.48 | 0.452 | 0.49 | 0.398 | 0.336 | 0.377
11 | NCI-H2347 | 0.801 | 1.03 | 1.09 | 0.809 | 0.573 | 0.334 | 0.448 | 0.736 | 0.834 | 0.749 | 0.724 | 0.697 | 0.708 | 0.351 | – | 0.291 | 0.319 | 0.282 | 0.33 | 0.406
12 | NCI-H2405 | 0.985 | 0.898 | 0.995 | 0.975 | 0.422 | 0.437 | 0.386 | 0.489 | 0.863 | 0.865 | 0.856 | 0.841 | 0.878 | 0.222 | 0.219 | 0.2 | 0.403 | 0.188 | 0.418 | 0.389
13 | NCI-H3122 | 0.955 | 1.02 | 1.07 | 1.04 | 0.922 | 0.442 | 0.38 | 0.362 | 0.265 | 0.283 | 0.324 | 0.269 | 0.273 | 0.762 | 0.779 | 0.78 | 0.936 | 0.727 | 0.389 | 0.31
14 | PC-3 [JPC-3] | 0.751 | 0.815 | 0.834 | 0.393 | 0.731 | 0.462 | 0.47 | 0.489 | 1.04 | 0.964 | 0.937 | 0.976 | 0.923 | 1 | 1.04 | 0.939 | 1.05 | 1.02 | 0.495 | 0.499
15 | PC-14 | 0.798 | 0.726 | 0.886 | 0.953 | 0.693 | 0.614 | 0.521 | 0.801 | 0.938 | 0.858 | 1.08 | 0.839 | 1 | 0.282 | 0.274 | 0.28 | 0.341 | 0.243 | 0.572 | 0.497
16 | RERF-LC-KJ | 1.17 | 1.16 | 1.07 | 1.03 | 0.761 | 0.5 | 0.409 | 0.462 | 0.794 | 0.796 | 0.922 | 0.789 | 0.816 | 0.88 | 0.709 | 0.729 | 0.769 | 0.768 | 0.509 | 0.441
17 | SK-LU-1 | 1.18 | 1.08 | 1.09 | 0.453 | 0.512 | 0.775 | 0.54 | 0.588 | 1.27 | – | 0.929 | 0.823 | 0.89 | 0.16 | 0.182 | 0.195 | 0.204 | 0.218 | 0.499 | 0.509
18 | SW 1573 | 1.38 | 0.91 | 1.17 | 0.873 | 0.514 | 0.465 | 0.35 | 0.17 | 0.802 | 0.814 | 0.933 | 0.872 | 0.811 | 0.461 | 0.394 | 0.588 | 0.685 | 0.411 | 0.401 | 0.342

— the supplement of paper PMC10307832
